Like-named read-outs stand apart in the source and are kept apart here. Values belong to the compound of their own block, whether it stands above or below them.
How the values were obtained:
[1] = test system: Plasmodium Falciparum; assay: Activity against Plasmodium falciparum in vitro, G-3H-hypoxanthine incorporation; type: cell-based; conditions: cultures incubated for 48 hours, RPMI 1640 medium + 10% human plasma, read-out: In vitro IC₅₀
Procedure: The test method was modification of that described by Desjardins et al., Antimicrob. Agents and Chemotherapy 1979, 16, 710-718. Compounds were dissolved in ethanol at a concentration of 4.8x10⁻³M and dilutions down to 1x10⁻⁴M were made. The drug solutions were serially diluted using RPMI 1640 medium + 10% human plasma in microtitration plates. Parasitised and fresh red blood cells were added, together with G-³H-hypoxanthine, in RPMI 1640 medium + 10% human plasma and the cultures incubated for 48 hours. Cultures were then harvested, the particulate contents collected on a glass fibre filter paper and washed copiously with water. The filter papers were dried and the radioactivity measured using a scintillation counter. Infected untreated and uninfected untreated cultures were included as controls.

[2] = test system: Plasmodium yoelii; assay: Activity against Plasmodium yoelii in vivo, tail-blood smears at 96 hours; parameters: species or system mice; conditions: for ED50: Plasmodium yoelii, in Mus musculus, 96 h
Procedure: The naphthoquinone was suspended in 0.25% (w/v) celacol in water by milling for 16-24 hours at 26°C. The suspensions were subsequently serially diluted with 0.25% (w/v) celacol in water. At time 0, 0.1 ml of a suspension of 5x10⁶ P.yoelii-parasitised red blood cells/ml of phosphate saline were injected intravenously into 15-20 g mice through a tail vein. Groups of 5 mice per treatment were dosed orally at times 6, 22, 30, 46, 54, 70 and 78 hours with 0.2 ml of the drug suspension. The compound of Example 4 was also administered intravenously. Tail-blood smears were taken at 96 hours, stained with Giemsa and the percentage of red blood cells infected determined and compared to untreated, infected controls. Percent inhibition was correllated with dose to provide ED values.

[3] = Water-solubility compared with the parent compound; type: physicochemical; conditions: as compared with the parent compound of formula (V)
[4] = test system: Pneumocystis carinii; assay: Prophylaxis of Pneumocystis carinii pneumonitis in dexamethasone-treated rats, lung histopathology score; type: in vivo; conditions: for No.with P. carinii Pneumonitis Total: per rats evaluated
Procedure: A: 2-[trans-4-(4-chlorophenyl)cyclohexyl]-3-hydroxy-1,4-naphthoquinone B: 2-[cis-4-(4-chlorophenyl)cyclohexyl]-3-hydroxy-1,4-naphthoquinone C: 2-[4-(4-chlorophenyl)cyclohexyl]-3-chloro-1,4-naphthoquinone D: 2-(4-t-butylcyclohexyl)-3-hydroxy-1,4-naphthoquinone E: 2-(4-t-butylcyclohexylmethyl)-3-hydroxy-1,4-naphthoquinone a) Prophylaxis Groups of 10 rats were treated with dexamethasone to allow latent Pneumocystis carinii infection to develop. Tetracycline was also administered to protect against bacterial infections. Test compound A was administered, by gavage, from day 4 of the dexamethasone treatment, at a dose of 100 mg/kg/day. Two control groups of rats were treated with dexamethasone and tetracycline only. A further group of rats was given cotrimoxazole (trimethoprim + sulphamethoxazole, 50 + 250 mg/kg/day, orally) in place of the test compound. At the end of the test period the animals were sacrificed and autopsies carried out. The lungs were removed and the right lung bisected. An imprint was made onto microscope slides and stained with toluidine blue. One half of the lung was placed in formalin, processed in paraffin blocks, sectioned and stained by the Gomori methanamine silver nitrate method. After autopsy the extent of P.carinii pneumonitis was scored under coded study as none if no organism seen; 1+ if P.carinii cysts seen sparsely distributed with less than one per 25 high power field (h.p.f.); 2+ if focal areas of P.carinii pneumonitis surrounded by 10 to 25 h.p.f of normal lung and 3+ if lung diffusely and extensively involved with organisms in almost all h.p.f.s.
b) Prophylaxis A further series of tests was carried out using the same general method as described above. Test compound A was administered at various dose levels, by gavage and in the diet.

[5] = test system: Pneumocystis carinii pneumonia; conditions: cited from earlier work
[6] = po, dosed orally at 6, 22, 30, 46, 54, 70 and 78 hours, read-out: In vivo ED₅₀ oral
[7] = 100 mg per kg/day, gavage, group of 10 rats
[8] = 100 mg per kg/day, gavage, group of 15 rats
[9] = 100 mg/kg/day by gavage from day 4 of dexamethasone treatment

SMILES: CC(=O)OC1=C([C@H]2CC[C@H](c3ccc(Cl)cc3)CC2)C(=O)c2ccccc2C1=O [Example 5, 2-Acetoxy-3-[trans-4-(4-chlorophenyl)cyclohexyl]-1,4-naphthoquinone]
IC50 [1]: 68 nM
ED50 [2, 6]: 0.12 mg/kg
water-solubility [3]: improved

IC50 [1]: 1140 nM
SMILES: NC1=C([C@H]2CC[C@H](c3ccc(Cl)cc3)CC2)C(=O)c2ccccc2C1=O [Example 3, 2-Amino-3-[trans-4-(4-chlorophenyl)cyclohexyl]-1,4-naphthoquinone]
ED50 [2, 6]: 1.26 mg/kg

IC50 [1]: 220 nM
SMILES: CN(C)c1ccc(C(=O)OC2=C([C@H]3CC[C@H](c4ccc(Cl)cc4)CC3)C(=O)c3ccccc3C2=O)cc1 [Example 7, 2-[trans-4-(4-Chlorophenyl)cyclohexyl]-3-(4-dimethylaminobenzoyloxy)-1,4-naphthoquinone]
ED50 [2, 6]: 0.12 mg/kg

IC50 [1]: 80 nM
SMILES: CCOC(=O)OC1=C([C@H]2CC[C@H](c3ccc(Cl)cc3)CC2)C(=O)c2ccccc2C1=O [Example 6, 2-Ethoxycarbonyloxy-3-[trans-4-(4-chlorophenyl)cyclohexyl]-1,4 naphthoquinone]
ED50 [2, 6]: 0.09 mg/kg

SMILES: O=C1C(O)=C([C@H]2CC[C@H](c3ccc(Cl)cc3)CC2)C(=O)c2ccccc21 [Example 1C, 2-[trans-4-(4-Chlorophenyl)cyclohexyl]-3-hydroxy-1,4-naphthoquinone]
No.with P. carinii Pneumonitis 1+ ([4]; 10 mg per kg/day, gavage): 1
No.with P. carinii Pneumonitis 2+ ([4]; 10 mg per kg/day, gavage): 0
No.with P. carinii Pneumonitis 3+ ([4]; 10 mg per kg/day, gavage): 8
No.with P. carinii Pneumonitis None ([4]; 10 mg per kg/day, gavage): 1
No.with P. carinii Pneumonitis Total ([4]; 10 mg per kg/day, gavage): 9/10
No.with P. carinii Pneumonitis 1+ ([4]; 25 mg per kg/day, gavage): 2
No.with P. carinii Pneumonitis 2+ ([4]; 25 mg per kg/day, gavage): 1
No.with P. carinii Pneumonitis 3+ ([4]; 25 mg per kg/day, gavage): 4
No.with P. carinii Pneumonitis None ([4]; 25 mg per kg/day, gavage): 1
No.with P. carinii Pneumonitis Total ([4]; 25 mg per kg/day, gavage): 7/8
No.with P. carinii Pneumonitis 1+ ([4]; 50 mg per kg/day, gavage): 0
No.with P. carinii Pneumonitis 2+ ([4]; 50 mg per kg/day, gavage): 1
No.with P. carinii Pneumonitis 3+ ([4]; 50 mg per kg/day, gavage): 1
No.with P. carinii Pneumonitis None ([4]; 50 mg per kg/day, gavage): 7
No.with P. carinii Pneumonitis Total ([4]; 50 mg per kg/day, gavage): 2/9
No.with P. carinii Pneumonitis 1+ [4, 7]: 1
No.with P. carinii Pneumonitis 2+ [4, 7]: 0
No.with P. carinii Pneumonitis 3+ [4, 7]: 0
No.with P. carinii Pneumonitis None [4, 7]: 8
No.with P. carinii Pneumonitis Total [4, 7]: 1/9
No.with P. carinii Pneumonitis 1+ [4, 8]: 0
No.with P. carinii Pneumonitis 2+ [4, 8]: 0
No.with P. carinii Pneumonitis 3+ [4, 8]: 0
No.with P. carinii Pneumonitis None [4, 8]: 9
No.with P. carinii Pneumonitis Total [4, 8]: 0/9
No.with P. carinii Pneumonitis 1+ ([4]; 100 mg per kg/day, rations): 0
No.with P. carinii Pneumonitis 2+ ([4]; 100 mg per kg/day, rations): 0
No.with P. carinii Pneumonitis 3+ ([4]; 100 mg per kg/day, rations): 0
No.with P. carinii Pneumonitis None ([4]; 100 mg per kg/day, rations): 10
No.with P. carinii Pneumonitis Total ([4]; 100 mg per kg/day, rations): 0/10
No of rats with P.carinii Pneumonitis 1+ [4, 9]: 0
No of rats with P.carinii Pneumonitis 2+ [4, 9]: 0
No of rats with P.carinii Pneumonitis 3+ [4, 9]: 0
No of rats with P.carinii Pneumonitis None [4, 9]: 8
No of rats with PCP/No of rats tested [4, 9]: 0/8
No.with P. carinii Pneumonitis 1+ ([4]; 200 mg per kg/day, rations): 0
No.with P. carinii Pneumonitis 2+ ([4]; 200 mg per kg/day, rations): 0
No.with P. carinii Pneumonitis 3+ ([4]; 200 mg per kg/day, rations): 0
No.with P. carinii Pneumonitis None ([4]; 200 mg per kg/day, rations, Gomori-Grocott stain): 9
No.with P. carinii Pneumonitis Total ([4]; 200 mg per kg/day, rations): 0/9
IC50 [1]: 2 nM
ED50 [2, 6]: 0.03 mg/kg

IC50 [1]: 59 nM
SMILES: CN(C)CCCOC1=C([C@H]2CC[C@H](c3ccc(Cl)cc3)CC2)C(=O)c2ccccc2C1=O.Cl [Example 4, 2-[trans-4-(4-Chlorophenyl)cyclohexyl]-3-(3-dimethylaminopropoxy)-1,4-naphthoquinone hydrochloride]
ED50 ([2]; iv, administered intravenously, read-out: In vivo ED₅₀ i.v.): 2.08 mg/kg
ED50 [2, 6]: 0.61 mg/kg
In vivo ED₅₀ oral ([2]; dosed orally at 6, 22, 30, 46, 54, 70 and 78 hours, hydrochloride, 5760 min): 0.68 mg/kg

IC50 [1]: 360 nM
SMILES: COC1=C([C@H]2CC[C@H](c3ccc(Cl)cc3)CC2)C(=O)c2ccccc2C1=O [Example 2, 2-Methoxy-3-[trans-4-(4-chlorophenyl)cyclohexyl]-1,4-naphthoquinone]
ED50 [2, 6]: 5.8 mg/kg

SMILES: N=C(N)c1ccc(OCCCCCOc2ccc(C(=N)N)cc2)cc1 [pentamidine]
incidence of adverse reactions ([5]; AIDS patients): around 50%
effective in AIDS patients ([5]; treatment of Pneumocystis carinii pneumonia): 50-70%
